Measured values taken from PubChem BioAssay (NCI).
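Method: 48-hour compound exposure of cells in 96-well plates, five concentrations, linear interpolation of endpoints. GI50 is the concentration that inhibits growth by half. TGI marks complete inhibition of growth.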

How the values were obtained:
Experiment in all cases: NCI-60 cell line screen, 48 h
[1] = test system: A498 renal
[2] = test system: KM12 colon
[3] = test system: HOP-92 NSCLC
[4] = test system: U251 CNS
[5] = test system: MDA-MB-231 breast
[6] = test system: CCRF-CEM leukemia
[7] = test system: HCC-2998 colon
[8] = test system: HCT-116 colon
[9] = test system: MDA-MB-435
[10] = test system: TK-10 renal

| SMILES | GI50 [1] | TGI [1] | GI50 [2] | TGI [2] | GI50 [3] | TGI [3] | GI50 [4] | TGI [4] | GI50 [5] | TGI [5] | GI50 [6] | TGI [6] | GI50 [7] | TGI [7] | GI50 [8] | TGI [8] | GI50 [9] | TGI [9] | GI50 [10] | TGI [10] |
| --- | --- | --- | --- | --- | --- | --- | --- | --- | --- | --- | --- | --- | --- | --- | --- | --- | --- | --- | --- | --- |
| Cc1cc(NCCCNc2ccnc3cc(Cl)ccc23)nc(N2CCN(C)CC2)n1 | 14.4 µM | 28.3 µM | 3.97 µM | 17.1 µM | 15.2 µM | 37.4 µM | 3.91 µM | 17.2 µM | 2.07 µM | 15.8 µM | 2.59 µM | 14.7 µM | 2.36 µM | 11.1 µM | 2.22 µM | 13 µM | 2.57 µM | 7.07 µM | 6.51 µM | 29.9 µM |
| C/C=C/C/C=C/CCC(=O)[C@H]1O[C@H]1C(N)=O | 17.4 µM | 43.7 µM | 17.2 µM | 32 µM | 10.8 µM | 26.3 µM | 14.5 µM | 28.3 µM | 13.1 µM | 26.8 µM | 6.02 µM | 62.3 µM | 15 µM | 28.5 µM | 8.15 µM | 22 µM | 11.6 µM | 25 µM | 16.5 µM | 30.5 µM |
| CCN(CC)c1ccc(/C=C2/C[N+](C)(C)C/C(=C/c3ccc(N(CC)CC)cc3)C2=O)cc1 |  | > 42.2 µM |  | 2.91 µM |  | 4.8 µM |  | 9.24 µM |  | 5.87 µM |  | 3.42 µM |  | 6.25 µM |  | 7.77 µM |  | 3.69 µM |  | 61.8 µM |
| CC(=O)Nc1ccc(/C=C/C(=O)c2ccccc2)cc1 | 15.9 µM | 36.7 µM | 4.47 µM | 16 µM | 17.9 µM | 51.1 µM | 4.61 µM | 17.7 µM | 17.7 µM | 44.6 µM | 3.36 µM | 16.6 µM | 15.5 µM | 29.7 µM | 3.98 µM | 15.5 µM | 17.4 µM | 50.5 µM | 14.6 µM | 29.8 µM |
| Cc1cc2cc3cc(C)c(N(C)C)cc3[n+](C)c2cc1N(C)C | 3.18 µM | 25.5 µM | 2.72 µM | 11.3 µM | 2.3 µM | 11.1 µM | 2.05 µM | 21.2 µM | 3.17 µM | 9 µM | 12.2 µM | > 100 µM | 3.45 µM | 16.7 µM | 2.55 µM | 20.7 µM | 3.1 µM | 14.9 µM | 5.19 µM | 58.4 µM |
| COc1cc(C(=O)N2N=C(c3ccc(S(C)(=O)=O)cc3)CC2c2ccco2)cc(OC)c1OC (stereo not given) | 5.15 µM | > 100 µM | 3.51 µM | > 100 µM | 3.65 µM | > 100 µM | 5.09 µM | > 100 µM | 11.2 µM | > 100 µM | 2.5 µM | > 25.4 µM | 21 µM | > 100 µM | 3.77 µM | > 100 µM | 1.27 µM | 7.27 µM | 29 µM | > 100 µM |
| CCCCOc1ccc(NC(=O)n2nc(N)c3ccccc32)cc1 | 20.1 µM | 49.4 µM | 13.2 µM | 54.2 µM | 17.7 µM | 54.1 µM | 30.9 µM | > 100 µM | 14 µM | 41.5 µM | 0.0755 µM | 4.68 µM | 17 µM | 37 µM | 19.3 µM | 55.7 µM | 22.8 µM | > 65.1 µM | 26.9 µM | > 73.5 µM |
| COc1cc2c3c(n(CCCN(CCN)CCCn4c5c(c6cc(OC)c(OC)cc6c4=O)C(=O)c4cc6c(cc4-5)OCO6)c(=O)c2cc1OC)-c1cc2c(cc1C3=O)OCO2 | 6.71 µM | 25.7 µM | 4.04 µM | > 37 µM | 1.29 µM | 15 µM | 0.354 µM | 5.99 µM | 3.3 µM | 17.3 µM | 0.116 µM | 0.407 µM | 0.407 µM | 5.98 µM | 0.837 µM | 3.25 µM | 2.22 µM | 23.2 µM | 3.11 µM | > 24.8 µM |
| CC(C)[C@H]1CC[C@H]2[C@@H](CC[C@H]3[C@](C)(CN)CCC[C@]23C)C1 | 13.2 µM | 27 µM | 1.79 µM | 3.18 µM | 1.22 µM | 8.12 µM | 1.67 µM | 3.08 µM | 2.05 µM | 4.51 µM | 3.42 µM | 12.8 µM | 1.79 µM | 3.18 µM | 1.72 µM | 3.09 µM | 2.13 µM | 4.69 µM | 2.19 µM | 7.9 µM |
| CC/C(=C(/c1ccc(OCCN(C)C)cc1)c1ccc(OC(=O)CCC(=O)c2c(C)[nH]c(/C=C3\N=C(c4ccc[nH]4)C=C3OC)c2C)cc1)c1ccccc1 | 2.54 µM | 16.8 µM | 1.21 µM | 10 µM | 0.749 µM | 4.13 µM | 1.46 µM | 6.23 µM | 0.441 µM | 2.38 µM | 0.435 µM | 6.34 µM | 3.72 µM | 13.4 µM | 0.792 µM | 3.26 µM | 2.56 µM | 10.2 µM | 4.87 µM | 15.7 µM |
